Data set [1] addresses T1, ASIC1a (Homo sapiens, UniProt P78348).
T1 sequence (P78348 1-528): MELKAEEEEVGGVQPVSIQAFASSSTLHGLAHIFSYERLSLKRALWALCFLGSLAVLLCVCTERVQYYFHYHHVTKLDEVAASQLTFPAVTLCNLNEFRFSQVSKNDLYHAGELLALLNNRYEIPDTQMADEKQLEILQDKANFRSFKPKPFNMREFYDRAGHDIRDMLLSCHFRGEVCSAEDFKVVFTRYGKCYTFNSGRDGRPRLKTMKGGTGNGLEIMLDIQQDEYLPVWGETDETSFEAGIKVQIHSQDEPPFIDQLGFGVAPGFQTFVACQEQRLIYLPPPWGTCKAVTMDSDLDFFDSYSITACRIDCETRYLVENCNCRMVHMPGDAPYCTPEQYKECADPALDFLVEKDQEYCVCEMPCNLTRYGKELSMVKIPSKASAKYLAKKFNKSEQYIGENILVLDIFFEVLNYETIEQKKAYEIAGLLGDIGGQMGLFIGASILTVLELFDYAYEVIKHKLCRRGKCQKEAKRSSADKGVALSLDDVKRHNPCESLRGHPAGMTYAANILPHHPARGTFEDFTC
Description: Calcium-imaging (calcium mobilization, FLIPR) assay in ASIC1a expressing HEK293 cells. Set-up: host or cells: HEK293. The following applies: n=3-7, compounds not radiolabelled. The class given is cell-based. The protocol: ASIC1a expressing HEK293 cells are grown in culture medium (DMEM with 10% FBS), in polystyrene culture flasks ([…]) at 37° C. in a humidified atmosphere of 5% CO2. Confluency of cells should be 80-90% on day of plating. Cells are rinsed with 10 ml of PBS and re-suspended by addition of culture medium and trituration with a 25 ml pipette.
The cells are seeded at a density of approximately 1×10^6 cells/ml (100 μl/well) in black-walled, clear bottom, 96-well plates pre-treated with 10 mg/l poly-D-lysin (75 μl/well for ≧30 min). Plated cells were allowed to proliferate for 24 h before loading with dye.
Fluo-4/AM (1 mg, Molecular Probes) is dissolved in 912 μl DMSO. The Fluo-4/AM stock solution (1 mM) is diluted with culture medium to a final concentration of 2 μM (loading solution).
The culture medium is aspirated from the wells, and 50 μl of the Fluo-4/AM loading solution is added to each well. The cells are incubated at 37° C. for 30 min.
After the loading period, the loading solution is aspirated and the cells are washed twice with 100 μl modified Assay Buffer (145 mM NaCl, 5 mM KCl, 5 mM CaCl2, 1 mM MgCl2, 10 mM HEPES, pH 7.4) to remove extracellular dye. Following the second wash, 100 μl modified Assay Buffer is added to each well and the fluorescence is measured in FLIPR™ or FlexStation™ (Molecular Devices, USA), or any other suitable equipment known to the skilled in the art.
Temperature: Room temperature (20-22° C.)
First addition: 50 μl test solution at a rate of 30 μl/sec and a starting height of […]
Second addition: 50 μl MES solution (20 mM, 5 mM final concentration) at a rate of 35 μl/sec and a starting height of 150 μl.
Reading intervals: pre-incubation—10 sec×7 and 3 sec×3 antagonist phase—3 sec×17 and 10 sec×12
Addition plates (compound test plate and MES plate) are placed on the right and left positions in the FLIPR tray, respectively. Cell plates are placed in the middle position and the ASIC1a program is effectuated. FLIPR will then take the appropriate measurements in accordance with the interval settings above. Fluorescence obtained after stimulation is corrected for the mean basal fluorescence (in modified Assay Buffer).
The MES-induced peak calcium response, in the presence of test substance, is expressed relatively to the MES response alone. Test substances that block the MES-induced calcium response are re-tested in triplicates. Confirmed hits are picked for further characterization by performing full dose-response curves to determine potency of each hit compound as represented by the IC50 values (i.e., the concentration of the test substance which inhibits 50% of the MES-induced calcium response).
It is noted that the compounds below are not radiolabelled.

The nature of data set [2]: Plasma composition analysis, parent compound and metabolites by MS. The following applies: rat plasma; for Plasma Component: P-OH: Compound G: detected but not confirmed (footnote a). The class given is in vivo. How it is done:
Rats receive compounds (5 mg/kg) dissolved in HPβCD 15%, dextrose 2.5%, pH 5 by intravenous (i.v). route or (25-30 mg/kg) dissolved in HPβCD 15%, dextrose 2.5%, […] (s.c.) route or (50-150 mg/kg) dissolved in HPβCD 15%, dextrose 2.5%, pH 5 by oral (p.o.) route. After the treatment, approximately 100 μl of blood sample is collected and the accurate bleeding time is recorded for each sample. Each blood sample is collected into Microvette blood collection tube containing anticoagulant lithium heparin. Following collection, the samples are centrifuged at […] for 15 minutes (to avoid haemolysis) and the plasma obtained from each is recovered and stored frozen (at −80° C.) pending analysis. Frozen samples are shipped on dry ice to quantify drug concentration within plasma after extraction procedure as previously described in Example 13.

Data set [3] has as its target T1, ASIC1a. Description: Whole cell patch clamp in heterologous expression system (CHO cells). Format: cell-based. Set-up: expressed in transfected cells; host or cells: CHO cells. How it is done: Another example of an in vitro assessment method consists of using mammalian heterologous expression systems, which are known to the skilled in the art, and include a variety of mammalian cell lines such as COS, HEK, e.g., HEK293 and/or CHO, cells. Cell lines are transfected with gated ion channel(s) and used to perform electrophysiology as follows:
All experiments are performed at room temperature (20-25° C.) in voltage clamp using conventional whole cell patch clamp methods (Neher, E., et al. (1978) Pfluegers Arch 375:219-228).
The amplifier used is the EPC-9 (HEKA-electronics, Lambrect, Germany) run by a Macintosh G3 computer via an ITC-16 interface. Experimental conditions are set with the Pulse-software accompanying the amplifier. Data is low pass filtered and sampled directly to hard-disk at a rate of 3 times the cut-off frequency.
Pipettes are pulled from borosilicate glass using a horizontal electrode puller (Zeitz-lnstrumente, Augsburg, Germany). The pipette resistances are 2-3 MOhms in the salt solutions used in these experiments. The pipette electrode is a chloridized silver wire, and the reference is a silver chloride pellet electrode (In Vivo Metric, Healdsburg, USA) fixed to the experimental chamber. The electrodes are zeroed with the open pipette in the bath just prior to sealing.
Coverslips with the cells are transferred to a 15 μl experimental chamber mounted on the stage of an inverted microscope (IMT-2, Olympus) supplied with Nomarski optics. Cells are continuously superfused with extracellular saline at a rate of 2.5 ml/min. After giga-seal formation, the whole cell configuration is attained by suction. The cells are held at a holding voltage of −60 mV and at the start of each experiment the current is continuously measured for 45 s to ensure a stable baseline. […] Current amplitudes are measured at the peak of the responses, and effect of the compounds is calculated as the amplitude at compound equilibrium divided by the amplitude of the current evoked by the pulse just before the compound was included. […]

In data set [4] the test system is CFA-induced change in weight bearing in Sprague-Dawley rats. Description: CFA model of chronic inflammatory pain, hindpaw weight bearing. Format: in vivo, rat. The following applies: 24 h after CFA; 60 min after drug; Compound A 5, 10, 20 mg/kg i.p.; Compound H 10, 30, 60 mg/kg; morphine 3, 6, 10 mg/kg; n=7-8. How it is done: Rats (body weight 260-300 g) were given a s.c. injection of CFA (50% in saline, 100 μl, Sigma) into the plantar surface of the hindpaw under brief halothane anaesthesia. After 24 h, they were then tested for hindpaw weight bearing responses, as assessed using an Incapacitance Tester (Linton Instrumentation, UK), (Zhu et al., 2005). The instrument incorporates a dual channel scale that separately measures the weight of the animal distributed to each hindpaw. While normal rats distribute their body weight equally between the two hindpaws (50-50), the discrepancy of weight distribution between an injured and non-injured paw is a natural reflection of the discomfort level in the injured paw (nocifensive behavior). The rats were placed in the plastic chamber designed so that each hindpaw rested on a separate transducer pad. […] For each rat, three readings from each paw were taken and then averaged. Side-to-side weight bearing difference was calculated as the average of the absolute value of the difference between two hindpaws from three trials (right paw reading-left paw reading).
Hindpaw weight bearing responses were measured in male Sprague-Dawley rats for 2-3 days prior to being given a hindpaw injection of CFA. Twenty-four hours later baseline responses were measured and rats were then administered Compound A (5, 10 and 20 mg/kg, i.p.), Compound H (10, 30 and 60 mg/kg) and morphine (3, 6 and 10 mg/kg). Weight bearing responses were then measured at 30, 60 and 120 min after drug or vehicle injection (data shown at 60 min.). […] All groups n=7-8.

The mark [5] stands for this setting: IV 5 mg/kg (table of Compounds G and J).
Setting [6] is: PO 50 mg/kg (table of Compounds G and J).

Take `CCN1CCc2c(-c3cc(Cl)ccc3OC)cc3c(c2C1)NC(=O)/C3=N/O` [Compound G, 5-(5-chloro-2-methoxyphenyl)-6,7,8,9-tetrahydro-3-(hydroxyimino)-8-ethyl-1H-pyrrolo[3,2-h]isoquinoline-2(3H)-one]: the IC50 at ASIC1a [1] came to 0.3 µM. Further, the “Plasma Component: N-desEt” value in data set [2] (IV 5 mg/kg) and in data set [2] (PO 50 mg/kg) was “Small” throughout. Further, the “Plasma Component: O-desMe” value in data set [2] (setting [5]) and in data set [2] (setting [6]) was “Small” in each case. Also, the “Plasma Component: P-OH” value in data set [2] (IV 5 mg/kg) and in data set [2] (PO 50 mg/kg) was “Small ^a” each time.
With `CCN1CCc2c(-c3ccccc3OC)cc3c(c2C1)NC(=O)/C3=N/O` [Compound J, 5-(2-methoxy-phenyl)-6,7,8,9-tetrahydro-3-(hydroxyimino)-8-ethyl-1H-pyrrolo[3,2-h]isoquinoline-2(3H)-one], the IC50 at ASIC1a [1] is 0.7 µM. The “Plasma Component: N-desEt” value in data set [2] (IV 5 mg/kg) and in data set [2] (PO 50 mg/kg) was “Small” each time. Besides, the “Plasma Component: O-desMe” value in data set [2] (setting [5]) and in data set [2] (setting [6]) was “Small” in each case. In addition, the “Plasma Component: P-OH” value in data set [2] (IV 5 mg/kg) and in data set [2] (PO 50 mg/kg) was “Small” each time.
Regarding `N=C(N)NC(=O)c1nc(Cl)c(N)nc1N` [amiloride, reference compound], the “human ASIC1a pH-evoked response” value on ASIC1a [3] is “reduce the human ASIC1a pH-evoked response in CHO cells in a dose-dependent manner”.
Turning to `CN1CC[C@]23c4c5ccc(O)c4O[C@H]2[C@@H](O)C=C[C@H]3[C@H]1C5` [morphine, reference compound], the “CFA-induced change in weight bearing compared with vehicle” value in data set [4] is “marked dose-dependent attenuation”.

Values taken from patent publication US20090246134A1, “COMPOSITIONS AND METHODS FOR MODULATING GATED ION CHANNELS” (PainCeptor Pharma Corporation, priority 2007, published 2009).
